Measurements reported in paper PMC8907207, “Multiplex quantification of C-terminal alpha-1-antitrypsin peptides provides a novel approach for characterizing systemic inflammation” (Scientific Reports, 2022).
Ends that are not written are not given here.

How the values were obtained:
[1] = Benchtop stability of QC samples at room temperature; type: in vitro ADME; details: QC in 70 g/L albumin in PBS, 60 min. at room temperature, LC-MS/MS
Procedure: (§1) Stability of analytes in processed samples was determined at six independent days for a time span of 20 h in the autosampler. Deviations of standing samples to freshly measured samples were below 19% at the LLOQ and below 9% for other QC levels for each analyte, respectively (Additional file 4). Stability of analytes in biological matrix was determined by consecutive cycles of freezing and thawing as well as extended intervals at room temperature from thawing to processing (approximately one hour).
(§2) Lyophilized authentic peptide standards were dissolved and diluted in a 70 g/L Albumin (from human serum, lyophilized, ≥ 99%, Sigma-Aldrich) in PBS (Sigma-Aldrich, St. Louis, MO, USA) solution. Internal standards C37^IS and C42^IS were dissolved in Milli-Q water (Millipore, Brussels, Belgium) containing 0.1% (v/v) formic acid (≥ 95%, Sigma-Aldrich) whereas C22^IS was only dissolved in ultrapure water. Mixtures of CAAPs used as calibration standards (calibrants) and quality control samples (QCs) were prepared as stock solution to a final concentration of 14 µM, respectively, (expect C40^SNP which was 5 µM) with subsequent serial dilutions. Calibrants and QCs were obtained from separate serial dilutions. Internal standard solution was prepared by adding equal volumes of each IS yielding a final concentration of 0.8 µM, respectively. All samples used for method development and validation were prepared and stored in 0.5 mL Protein LoBind Tubes (Eppendorf AG, Hamburg, Germany) in aliquots at − 80 °C until use.
(§3) Working range of calibrants was defined based on CAAPs detected in samples from healthy donors (set to approximate lower limit of quantification) and in samples from septic patients (set to middle to high calibration range) which were re-analyzed from a previously work[46]. Nine calibrants were used in total ranging from 0.01 µM to 1.5 µM thereby covering more than two orders of magnitude in concentration. Linearity was assessed determining mean linear regression coefficients of each calibration curve from 0.01 to 1.5 µM in eight independent analytical runs. However, respective LLOQs (lower limit of quantification) and ULOQs (upper limit of quantification) were defined individually based on natural occurrence (see above) and results from validation parameter directly affected individual working ranges (carry-over, specificity). Four QC samples were prepared and measured in total (QC1, QC2, QC3, and QC4) to cover the entire range of calibration. However, three QCs for each of the respective analytes were used for method validation. Carry-over was determined measuring pure albumin solutions prepared without internal standards (but equal amount and concentration of water/formic acid solution as regular internal standard solution, “blank albumin sample”) directly after the respective highest calibrants. Peak areas were compared to peak areas from respective LLOQ samples (prepared with regular internal standard solution). Specificity was assessed using single compounds at respective highest calibrant level which were prepared and calculated as described for carry-over. The specificity of analytes towards internal standards was determined using pure albumin solution with internal standard (“zero albumin sample”). Accuracy and precision was determined by back-calculated concentrations from repeated measurements of the same QC samples during one analytical run (within-run repeatability, n = 5) and from freshly prepared samples during five independent analytical runs (between-run, n = 5). Due to the unavailability of analyte-free biological matrix, selectivity of analytes were assessed in pure albumin solution containing internal standards. Matrix effects were determined calculating recovery rates and precision of each compound in human blood samples. Direct comparison between different anticoagulants (EDTA, lithium-heparin) and serum was performed using whole blood from the same human donor. […]

[2] = Freeze/thaw stability of QC samples; type: in vitro ADME; details: QC in 70 g/L albumin in PBS, two cycles of freezing and thawing, LC-MS/MS
Procedure: as §1, §2, §3

[3] = QC2 (0.025 µM; C40^SNP see Table 1)
[4] = QC3 (0.3 µM; C40^SNP 0.1073 µM)

Row | Sequence | benchtop stability, accuracy (mean of n=3) [1, 3] [%] | benchtop stability, deviation from freshly processed QCs (mean of n=3) [1, 3] [%] | benchtop stability, accuracy (mean of n=3) [1, 4] [%] | benchtop stability, deviation from freshly processed QCs (mean of n=3) [1, 4] [%] | freeze/ thaw stability, accuracy (mean of n=3) [2, 3] [%] | freeze/ thaw stability, deviation from freshly processed QCs (mean of n=3) [2, 3] [%] | freeze/ thaw stability, accuracy (mean of n=3) [2, 4] [%] | freeze/ thaw stability, deviation from freshly processed QCs (mean of n=3) [2, 4] [%]
1 | IPMSIPPEVKFNKPFVFLMIDQNTKSPLFMGKVVNPTQK [C39^SNP] | 102 | -4 | 100 | -4 | 105 | -1 | 102 | -2
2 | AIPMSIPPEVKFNKPFVFLMIEQNTKSPLFMGKVVNPTQK [C40^WT] | 109 | 6 | 101 | -3 | 107 | 5 | 99 | -4
3 | LMIEQNTKSPLFMGKVVNPTQK [C22^WT] | 103 | 1 | 102 | 1 | 104 | 2 | 99 | -2
4 | LEAIPMSIPPEVKFNKPFVFLMIDQNTKSPLFMGKVVNPTQK [C42^SNP] | 104 | 1 | 101 | -3 | 105 | 2 | 100 | -4
5 | LMIDQNTKSPLFMGKVVNPTQK [C22^SNP] | 104 | 2 | 100 | 3 | 103 | 2 | 97 | 0
6 | LEAIPMSIPPEVKFNKPFVFLMIEQNTKSPLFMGKVVNPTQK [C42^WT] | 102 | 1 | 101 | -3 | 104 | 2 | 100 | -4
7 | AIPMSIPPEVKFNKPFVFLMIDQNTKSPLFMGKVVNPTQK [C40^SNP] | 104 | -1 | 101 | -2 | 103 | -3 | 100 | -3
8 | SIPPEVKFNKPFVFLMIDQNTKSPLFMGKVVNPTQK [C36^SNP] | 101 | -1 | 98 | -2 | 104 | 2 | 99 | -2
9 | MSIPPEVKFNKPFVFLMIEQNTKSPLFMGKVVNPTQK [C37^WT] | 106 | 1 | 101 | -1 | 114 | 9 | 103 | 1
